The test deals with RA-metabolism in MCF-7 human breast cancer cells. The test is described as follows: Inhibition of retinoic acid (RA) metabolism. Format: cell-based. Conditions: MCF7, concentration needed to reduce the amount of polar 3H-RA metabolites to 50% of the control, MCF-7 cells. The text has this:
The property to delay the metabolism of retinoic acid can be evidenced in various in vitro and in vivo experiments. A particular in vitro procedure is described in example C.1 and tests the inhibitory activity of the compounds of formula (I) on the metabolism of retinoic acid in human breast cancer cells. The compounds of the present invention were also effective in suppressing induced vaginal keratinization effects in ovariectomized rats as is described in example C.2.
MCF-7 human breast cancer cells were grown as stock cultures according to art-known protocols. One day before the experiment, RA is added to the stock cultures to stimulate RA-metabolism. At the start of the experiment, cell suspensions were incubated in a tissue culture medium containing ^3H-RA as the substrate. Different concentrations of the test compound (dissolved in 1% DMSO) were added to the incubation mixtures, and at the end of the incubation, the unmetabolized RA is separated from its polar metabolites. The fraction containing the polar ^3H-labeled metabolites was collected and counted in a scintillation counter. For each experiment, a control and a blank incubation were run in parallel.

By IC50 is commonly meant the point on the concentration scale where inhibition reaches its midpoint.

Some results are limits rather than exact numbers.

Take `CCC(CC)C(c1ccc(Nc2nc3ccccc3s2)cc1)n1cncn1` (racemic) [Compound 25, (±)-N-[4-[2-ethyl-1-(1H-1,2,4-triazol-1-yl)butyl]phenyl]-2-benzothiazol-amine]: the 50% inhibitory concentration (IC50) is under 10 nM.

For the compound `CC(C)C(c1ccc(Nc2nccs2)cc1)n1ccnc1` (racemic) [Compound 51, (±)-N-[4-[1-(1H-imidazol-1-yl)-2-methylpropyl]phenyl]-2-thiazolamine], the 50% inhibitory concentration (IC50) is under 10 nM.

Consider `c1ccc2sc(Nc3ccc(Cn4ccnc4)cc3)nc2c1` [Compound 24, N-[4-(1H-imidazol-1-ylmethyl)-phenyl]-2-benzothiazolamine], for which the IC50 was under 10 nM.

With `CCC(CC)C(c1ccc(Nc2nc3ccccc3o2)cc1)n1cncn1` (centres unmarked) [Compound 56, N-[4-[2-ethyl-1-(1H-1,2,4-triazol-1-yl)butyl]phenyl]-2-benzoxazolamine], the IC50 was under 10 nM.

Consider `Cc1csc(Nc2ccc(C(C(C)C)n3ccnc3)cc2)n1` (racemic) [Compound 50, (±)-N-[4-[1-(1H-imidazol-1-yl)-2-methylpropyl]phenyl]-4-methyl-2-thiazolamine], for which the IC50 is under 10 nM.

The values are drawn from US7378433B2, “N-[4-(heteroarylmethyl)phenyl]-heteroarylamines” (Janssen Pharmaceutica, N.V., priority 1996, dated 2008).
